Read-outs that look alike come from different tables or passages of the source.
Tests used:
[1] = system: EMRSA strains, vancomycin resistant subpopulations, Linzolid resistant strains; assay: Checkerboard MIC / FIC / FIX of vancomycin and Aurograb (Tables 9, 10); assay type: cell-based, S. aureus; details: for MIC In combination: VAN with Aurograb; for MIC: Staphylococcus aureus
Description: In order to determine the Minimum Inhibitory Concentration (MIC), the Fractional Inhibitory Concentration (FIC) and the FIX (fractional inhibitory index), the following was method was used.
The cells were diluted in Isosensitest Broth (Oxoid, UK) to give a final inoculum of […] cells per mL. […] To this was added exogenous Aurograb in the range 0.3-25 μg/ml in a checkerboard formation. A negative control series was also prepared containing Aurograb formulation buffer alone. Cultures were incubated for 48 hours at 37° C.
The minimum inhibitory concentration (MIC) was defined as the lowest concentration of agent at which no bacterial growth occurred and was determined by spectrophotometric evaluation of the lack of turbidity (growth) in culture.
Fractional inhibitory concentrations (FIC) and FIX values were calculated. Synergistic activity between the two agents was defined as an FIX value ≦0.5. Indifferent activity was defined as a value of 0.5-4, and a value of ≧4 defined antagonism.
The MIC (Alone) column indicates the minimum inhibitory concentration of the agent when administered alone. The MIC (In combination) column indicates the minimum inhibitory concentration of each drug when used in combination.

[2] = system: EMRSA-15; assay type: in vivo, S. aureus; details: for Survivors at 24 h (n = 10): 8×10^7 cfu; for Mortality: 10 mice
Description: Method: 60 female CD-I mice (22-24 g) were given S. aureus (a fresh clinical isolate of EMRSA-15) at a dose of 8×10^7 cfu in a 100 μl iv bolus.
All mice were terminated at 48 hours for culture of kidney, liver and spleen. Mice fatalities prior to the 48 hour cull were not subject to organ colony counts.

[3] = system: EMRSA-15; assay type: in vivo, S. aureus; details: Group 3: Vancomycin 6 mg/kg alone iv
Description: Methods: 60 female CD-1 mice (22-24 g) were given 1×10^7 cfu of EMRSA-15 as a 100 μl iv bolus.
All mice were terminated at 48 hours for culture of kidney, liver and spleen.
Results: expressed as log cfu per gram of tissue, unless the majority of mice (>5) were cleared (ie organs were culture-negative). N/A=not applicable. (Table 7)

Compound: CN[C@H](CC(C)C)C(=O)N[C@H]1C(=O)N[C@@H](CC(N)=O)C(=O)N[C@H]2C(=O)N[C@H]3C(=O)N[C@H](C(=O)N[C@H](C(=O)O)c4cc(O)cc(O)c4-c4cc3ccc4O)[C@H](O)c3ccc(c(Cl)c3)Oc3cc2cc(c3O[C@@H]2O[C@H](CO)[C@@H](O)[C@H](O)[C@H]2O[C@H]2C[C@](C)(N)[C@H](O)[C@H](C)O2)Oc2ccc(cc2Cl)[C@H]1O [Vancomycin, vancomycin]
- MIC In combination ([1]; EMRSA strain 1): 0.03 µg/mL
- MIC In combination ([1]; EMRSA strain 1A): 1 µg/mL
- MIC In combination ([1]; EMRSA strain 2): 0.03 µg/mL
- MIC In combination ([1]; EMRSA strain 2A): 1 µg/mL
- MIC In combination ([1]; EMRSA strain 3): 0.03 µg/mL
- MIC In combination ([1]; EMRSA strain 4): 0.03 µg/mL
- MIC In combination ([1]; EMRSA strain 5): 0.03 µg/mL
- MIC In combination ([1]; EMRSA strain 6): 0.125 µg/mL
- MIC In combination ([1]; EMRSA strain 7): 0.03 µg/mL
- MIC In combination ([1]; EMRSA strain 8): 0.03 µg/mL
- MIC In combination ([1]; EMRSA strain 8A): 0.03 µg/mL
- MIC In combination ([1]; EMRSA strain 9): 0.0125 µg/mL
- MIC In combination ([1]; EMRSA strain 10): 0.03 µg/mL
- MIC In combination ([1]; EMRSA strain 11): 0.03 µg/mL
- MIC In combination ([1]; EMRSA strain 11A): 1 µg/mL
- MIC In combination ([1]; EMRSA strain 12): 0.03 µg/mL
- MIC In combination ([1]; EMRSA strain 12A): 0.03 µg/mL
- MIC In combination ([1]; EMRSA strain 13): 0.03 µg/mL
- MIC In combination ([1]; EMRSA strain 14): 0.03 µg/mL
- MIC In combination ([1]; EMRSA strain 15): 0.03 µg/mL
- MIC In combination ([1]; EMRSA strain 15A): 0.03 µg/mL
- MIC In combination ([1]; EMRSA strain 16): 0.03 µg/mL
- MIC In combination ([1]; EMRSA strain 17): 1 µg/mL
- MIC In combination ([1]; NARSA 1 (Hiramatsu)): 2 µg/mL
- MIC In combination ([1]; NARSA 2 (Hiramatsu)): 0.5 µg/mL
- MIC In combination ([1]; NARSA 12 (France)): 1 µg/mL
- MIC In combination ([1]; NARSA 17 (New York)): 2 µg/mL
- MIC In combination ([1]; NARSA 119 (Linezolid R)): 1 µg/mL
- MIC In combination ([1]; NARSA 120 (Linezolid R)): 1 µg/mL
- MIC In combination ([1]; NARSA 121 (Linezolid R)): 1 µg/mL
- MIC ([1]; read-out: MIC Alone, EMRSA strain 1): 0.5 µg/mL
- MIC ([1]; read-out: MIC Alone, EMRSA strain 1A): 8 µg/mL
- MIC ([1]; read-out: MIC Alone, EMRSA strain 2): 0.5 µg/mL
- MIC ([1]; read-out: MIC Alone, EMRSA strain 2A): 8 µg/mL
- MIC ([1]; read-out: MIC Alone, EMRSA strain 3): 0.5 µg/mL
- MIC ([1]; read-out: MIC Alone, EMRSA strain 4): 0.5 µg/mL
- MIC ([1]; read-out: MIC Alone, EMRSA strain 5): 0.5 µg/mL
- MIC ([1]; read-out: MIC Alone, EMRSA strain 6): 0.5 µg/mL
- MIC ([1]; read-out: MIC Alone, EMRSA strain 7): 0.5 µg/mL
- MIC ([1]; read-out: MIC Alone, EMRSA strain 8): 0.5 µg/mL
- MIC ([1]; read-out: MIC Alone, EMRSA strain 8A): 0.5 µg/mL
- MIC ([1]; read-out: MIC Alone, EMRSA strain 9): 0.5 µg/mL
- MIC ([1]; read-out: MIC Alone, EMRSA strain 10): 0.5 µg/mL
- MIC ([1]; read-out: MIC Alone, EMRSA strain 11): 0.5 µg/mL
- MIC ([1]; read-out: MIC Alone, EMRSA strain 11A): 4 µg/mL
- MIC ([1]; read-out: MIC Alone, EMRSA strain 12): 0.5 µg/mL
- MIC ([1]; read-out: MIC Alone, EMRSA strain 12A): 0.5 µg/mL
- MIC ([1]; read-out: MIC Alone, EMRSA strain 13): 0.5 µg/mL
- MIC ([1]; read-out: MIC Alone, EMRSA strain 14): 0.5 µg/mL
- MIC ([1]; read-out: MIC Alone, EMRSA strain 15): 0.5 µg/mL
- MIC ([1]; read-out: MIC Alone, EMRSA strain 15A): 0.5 µg/mL
- MIC ([1]; read-out: MIC Alone, EMRSA strain 16): 0.5 µg/mL
- MIC ([1]; read-out: MIC Alone, EMRSA strain 17): 4 µg/mL
- MIC ([1]; read-out: MIC Alone, NARSA 1 (Hiramatsu)): 8 µg/mL
- MIC ([1]; read-out: MIC Alone, NARSA 2 (Hiramatsu)): 3 µg/mL
- MIC ([1]; read-out: MIC Alone, NARSA 12 (France)): 8 µg/mL
- MIC ([1]; read-out: MIC Alone, NARSA 17 (New York)): 8 µg/mL
- MIC ([1]; read-out: MIC Alone, NARSA 119 (Linezolid R)): 4 µg/mL
- MIC ([1]; read-out: MIC Alone, NARSA 120 (Linezolid R)): 4 µg/mL
- MIC ([1]; read-out: MIC Alone, NARSA 121 (Linezolid R)): 4 µg/mL
- Survivors at 24 h (n = 10) ([2]; Group 2: Vancomycin 4.0 mg/kg alone iv): 4
- Survivors at 24 h (n = 10) ([2]; Group 4: Vancomycin 2.0 mg/kg alone iv): 5
- Mortality ([2]; vancomycin alone 2.0 mg/kg): 5 deaths
- Mortality ([2]; vancomycin alone 4.0 mg/kg): 6 deaths
- Liver, number of mice cleared ([3]; 10 mice): N/A (8 clear)
- Spleen, number of mice cleared ([3]; 10 mice): 5
- Liver, number of mice cleared ([3]; 10 mice, listed as vancomycin): 8
- Kidney Log cfu/g of tissue ([3]; 48 hours): 6.53 ± 1.53 Log cfu/g of tissue
